These compounds were tested against T1, human vasopressin V1b receptor (Homo sapiens, UniProt P47901) (assay: Vasopressin V1b receptor binding test). Settings: membranes of CHO-K1 cells with human V1b receptor, displacement of 1.5 nM 3H-AVP; for compounds with more than one stereogenic center the diastereomer with greater affinity.
T1 construct: expressed in transfected cells; host or cells: CHO-K1 (cell line hV1b_3H2_CHO), membrane preparation
T1 sequence (P47901 1-424): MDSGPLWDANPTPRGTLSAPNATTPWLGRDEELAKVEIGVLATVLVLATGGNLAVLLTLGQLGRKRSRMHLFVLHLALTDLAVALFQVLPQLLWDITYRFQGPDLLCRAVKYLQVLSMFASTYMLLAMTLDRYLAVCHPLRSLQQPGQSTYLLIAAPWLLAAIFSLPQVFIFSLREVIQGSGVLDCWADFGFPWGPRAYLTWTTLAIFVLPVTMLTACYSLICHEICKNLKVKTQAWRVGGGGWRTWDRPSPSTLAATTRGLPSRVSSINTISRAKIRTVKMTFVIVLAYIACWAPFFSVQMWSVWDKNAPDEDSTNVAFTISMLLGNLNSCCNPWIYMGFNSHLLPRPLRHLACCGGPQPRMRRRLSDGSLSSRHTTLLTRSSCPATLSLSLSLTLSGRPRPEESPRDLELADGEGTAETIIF
In short: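 Radioligand displacement on membranes carrying human V1b receptor in 50 mM tris, 10 mM MgCl2, 0.1% BSA, pH 7.4, 2% DMSO final; 60 min at room temperature, nonspecific binding with 1 μM AVP. Free ligand removed by filtration, bound counted by liquid scintillation, Ki from nonlinear regression of triplicates.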

Ki [nM]	Structure (SMILES)
< 10	COc1ccc(S(=O)(=O)N2C(=O)C(c3cc(CN4CCNC(=O)C4)ccc3OC)(N3CCC[C@H]3c3ncco3)c3cc(C#N)ccc32)cc1 (stereo partly drawn) [Example 143, 5-Cyano-1-(4-methoxy-benzenesulfonyl)-3-[2-methoxy-5-(3-oxo-piperazin-1-ylmethyl)phenyl]-3-((S)-2-oxazol-2-yl-pyrrolidin-1-yl)-1,3-dihydroindol-2-one]
< 10	COc1ccc(S(=O)(=O)N2C(=O)C(c3cc(CN4CCCN(C)CC4)ccc3OC)(N3CCC[C@H]3c3ncco3)c3cc(C#N)ccc32)cc1 (stereo partly drawn) [Example 144, 5-Cyano-1-(4-methoxybenzenesulfonyl)-3-[2-methoxy-5-(4-methyl-[1,4]diazepan-1-ylmethyl)phenyl]-3-((S)-2-oxazol-2-yl-pyrrolidin-1-yl)-1,3-dihydroindol-2-one]
10 to 100	COc1ccc(CN2CCN(C)CC2)cc1C1(N2CCC[C@H]2c2ncco2)C(=O)N(S(=O)(=O)c2ccc(OC(F)F)cc2)c2ccc(Cl)cc21 (stereo partly drawn) [Example 145, 5-Chloro-1-(4-difluoromethoxybenzenesulfonyl)-3-[2-methoxy-5-(4-methylpiperazin-1-ylmethyl)phenyl]-3-((S)-2-oxazol-2-yl-pyrrolidin-1-yl)-1,3-dihydroindol-2-one]
10 to 100	COc1ccc(S(=O)(=O)N2C(=O)C(c3ccc(CN4CCOCC4)cc3OC)(N3CCC[C@H]3c3ncco3)c3cc(Cl)ccc32)cc1 (stereo partly drawn) [Example 146, 5-Chloro-1-(4-methoxybenzenesulfonyl)-3-(2-methoxy-4-(morpholin-4-ylmethyl)phenyl)-3-((S)-2-oxazol-2-yl-pyrrolidin-1-yl)-1,3-dihydroindol-2-one]
< 10	COc1ccc(S(=O)(=O)N2C(=O)C(c3ccc(CN4CCN(CCO)CC4)cc3OC)(N3CCC[C@H]3c3ncco3)c3cc(C#N)ccc32)cc1 (stereo partly drawn) [Example 147, 5-Cyano-3-{4-[4-(2-hydroxyethyl)piperazin-1-ylmethyl]-2-methoxyphenyl}-1-(4-methoxybenzenesulfonyl)-3-((S)-2-oxazol-2-yl-pyrrolidin-1-yl)-1,3-dihydroindol-2-one]
< 10	CCN1CCN(Cc2ccc(C3(N4CCC[C@H]4c4ncco4)C(=O)N(S(=O)(=O)c4ccc(OC)cc4)c4ccc(C#N)cc43)c(OC)c2)CC1 (stereo partly drawn) [Example 148, 5-Cyano-3-[4-(4-ethylpiperazin-1-ylmethyl)-2-methoxyphenyl]-1-(4-methoxybenzenesulfonyl)-3-((S)-2-oxazol-2-yl-pyrrolidin-1-yl)-1,3-dihydroindol-2-one]
< 10	COc1ccc(S(=O)(=O)N2C(=O)C(c3cc(CN(C)C)ccc3OC)(N3C[C@H](O)C[C@H]3c3ncco3)c3cc(C#N)ccc32)cc1 (stereo partly drawn) [Example 150, 5-Cyano-3-(5-dimethylaminomethyl-2-methoxyphenyl)-3-((2S,4R)-4-hydroxy-2-oxazol-2-yl-pyrrolidin-1-yl)-1-(4-methoxybenzenesulfonyl)-1,3-dihydroindol-2-one]
< 10	CCNCc1ccc(OC)c(C2(N3C[C@H](O)C[C@H]3c3ncco3)C(=O)N(S(=O)(=O)c3ccc(OC)cc3)c3ccc(C#N)cc32)c1 (stereo partly drawn) [Example 151, 5-Cyano-3-(5-ethylaminomethyl-2-methoxyphenyl)-3-((2S,4R)-4-hydroxy-2-oxazol-2-yl-pyrrolidin-1-yl)-1-(4-methoxybenzenesulfonyl)-1,3-dihydroindol-2-one]
< 10	CCN1CCN(Cc2ccc(C3(N4CCC[C@H]4c4ncco4)C(=O)N(S(=O)(=O)c4ccc(C#N)cc4)c4ccc(Cl)cc43)c(OC)c2)CC1 (stereo partly drawn) [Example 152, 5-Chloro-3-[4-(4-ethylpiperazin-1-ylmethyl)-2-methoxyphenyl]-3-((S)-2-oxazol-2-yl-pyrrolidin-1-yl)-1-(4-cyanobenzenesulfonyl)-1,3-dihydroindol-2-one]
< 10	COc1ccc(S(=O)(=O)N2C(=O)C(c3ccc(CN4CCNCC4)cc3OC)(N3CCC[C@H]3c3ncco3)c3cc(C#N)ccc32)cc1 (stereo partly drawn) [Example 153, 5-Cyano-1-(4-methoxybenzenesulfonyl)-3-(2-methoxy-4-piperazin-1-ylmethylphenyl)-3-((S)-2-oxazol-2-yl-pyrrolidin-1-yl)-1,3-dihydroindol-2-one]
< 10	COc1ccc(S(=O)(=O)N2C(=O)C(c3ccc(CNCCO)cc3OC)(N3CCC[C@H]3c3ncco3)c3cc(C#N)ccc32)cc1 (stereo partly drawn) [Example 154, 5-Cyano-3-{4-[(2-hydroxyethylamino)methyl]-2-methoxyphenyl}-1-(4-methoxybenzenesulfonyl)-3-((S)-2-oxazol-2-yl-pyrrolidin-1-yl)-1,3-dihydroindol-2-one]
< 10	CNCc1ccc(OC)c(C2(N3CCCC3c3nccs3)C(=O)N(S(=O)(=O)c3ccc(OC)cc3)c3ccc(Cl)cc32)c1 (stereo not shown) [Example 155, 5-Chloro-1-(4-methoxybenzenesulfonyl)-3-(2-methoxy-5-methylaminomethylphenyl)-3-(2-thiazol-2-yl-pyrrolidin-1-yl)-1,3-dihydroindol-2-one]
10 to 100	COc1cc(CN(C)C)ccc1C1(N2CCC[C@H]2c2ncco2)C(=O)N(S(=O)(=O)c2ccc(C#N)cc2)c2ccc(Cl)cc21 (stereo partly drawn) [Example 156, 5-Chloro-3-(4-dimethylaminomethyl-2-methoxyphenyl)-3-((S)-2-oxazol-2-yl-pyrrolidin-1-yl)-1-(4-cyanobenzenesulfonyl)-1,3-dihydroindol-2-one]
10 to 100	COc1cc(CN2CCCC2)ccc1C1(N2CCC[C@H]2c2ncco2)C(=O)N(S(=O)(=O)c2ccc(C#N)cc2)c2ccc(Cl)cc21 (stereo partly drawn) [Example 157, 5-Chloro-3-(2-methoxy-4-pyrrolidin-1-ylmethylphenyl)-3-((S)-2-oxazol-2-yl-pyrrolidin-1-yl)-1-(4-cyanobenzenesulfonyl)-1,3-dihydroindol-2-one]
< 10	COc1cc(CN2CCN(C)CC2)ccc1C1(N2CCC[C@H]2c2ncco2)C(=O)N(S(=O)(=O)c2ccc(C#N)cc2)c2ccc(Cl)cc21 (stereo partly drawn) [Example 158, 5-Chloro-3-[2-methoxy-4-(4-methylpiperazin-1-ylmethyl)phenyl]-3-((S)-2-oxazol-2-yl-pyrrolidin-1-yl)-1-(4-cyanobenzenesulfonyl)-1,3-dihydroindol-2-one]
10 to 100	CCCNCc1ccc(C2(N3CCC[C@H]3c3ncco3)C(=O)N(S(=O)(=O)c3ccc(C#N)cc3)c3ccc(Cl)cc32)c(OC)c1 (stereo partly drawn) [Example 159, 5-Chloro-3-(2-methoxy-4-propylaminomethylphenyl)-3-((S)-2-oxazol-2-yl-pyrrolidin-1-yl)-1-(4-cyanobenzenesulfonyl)-1,3-dihydroindol-2-one]
< 10	COc1ccc(S(=O)(=O)N2C(=O)C(c3cc(CN4CCNCC4)ccc3OC)(N3C[C@H](O)C[C@H]3c3ncco3)c3cc(C#N)ccc32)cc1 (stereo partly drawn) [Example 160, 5-Cyano-3-((2S,4R)-4-hydroxy-2-oxazol-2-yl-pyrrolidin-1-yl)-1-(4-methoxybenzenesulfonyl)-3-(2-methoxy-5-piperazin-1-ylmethylphenyl)-1,3-dihydroindol-2-one]
< 10	C=CCNCc1ccc(OC)c(C2(N3CCC[C@H]3c3ncco3)C(=O)N(S(=O)(=O)c3ccc(OC)cc3)c3ccc(Cl)cc32)c1 (stereo partly drawn) [Example 161, 5-Chloro-3-(5-allylaminomethyl-2-methoxyphenyl)-1-(4-methoxybenzenesulfonyl)-3-((S)-2-oxazol-2-yl-pyrrolidin-1-yl)-1,3-dihydroindol-2-one]
< 10	COc1cc(CN2CCNCC2)ccc1C1(N2CCC[C@H]2c2ncco2)C(=O)N(S(=O)(=O)c2ccc(C#N)cc2)c2ccc(Cl)cc21 (stereo partly drawn) [Example 162, 5-Chloro-3-(2-methoxy-4-piperazin-1-ylmethylphenyl)-3-((S)-2-oxazol-2-yl-pyrrolidin-1-yl)-1-(4-cyanobenzenesulfonyl)-1,3-dihydroindol-2-one]
< 10	CNCc1ccc(OC)c(C2(N3C[C@H](O)C[C@H]3c3ncco3)C(=O)N(S(=O)(=O)c3ccc(OC)cc3)c3ccc(C#N)cc32)c1 (stereo partly drawn) [Example 163, 5-Cyano-3-((2S,4R)-4-hydroxy-2-oxazol-2-yl-pyrrolidin-1-yl)-1-(4-methoxybenzenesulfonyl)-3-(2-methoxy-5-methylaminomethylphenyl)-1,3-dihydroindol-2-one]
< 10	COc1ccc(S(=O)(=O)N2C(=O)C(c3cc(CN4CCN(C)CC4)cnc3OC)(N3CCC[C@H]3c3ncco3)c3cc(Cl)ccc32)cc1 (stereo partly drawn) [Example 164, 5-Chloro-1-(4-methoxybenzenesulfonyl)-3-[2-methoxy-5-(4-methylpiperazin-1-ylmethyl)pyridin-3-yl]-3-((S)-2-oxazol-2-yl-pyrrolidin-1-yl)-1,3-dihydroindol-2-one]
< 10	COc1ccc(S(=O)(=O)N2C(=O)C(c3ccc(CN4CCN(C)CC4)cc3OC)(N3C[C@H](O)C[C@H]3c3ncco3)c3cc(Cl)ccc32)cc1 (stereo partly drawn) [Example 165, 5-Chloro-3-((2S,4R)-4-hydroxy-2-oxazol-2-yl-pyrrolidin-1-yl)-1-(4-methoxybenzenesulfonyl)-3-[2-methoxy-4-(4-methylpiperazin-1-ylmethyl)phenyl]-1,3-dihydroindol-2-one]

— patent publication US8044079B2, “Substituted oxindole derivatives, medicaments containing said derivatives and use thereof” (Abbott GmbH & Co. KG, priority 2005, dated 2011)
